Here are results for 10 molecules from ChEMBL document CHEMBL1201862, “PubChem BioAssay data set” (2004).

Among the test systems are SN12C; CCRF-CEM; A498; PC-3; HCC 2998; MDA-MB-231; MDA-MB-435; HOP-62; OVCAR-4; COLO 205; CAKI-1; SF-539; K562; NCI-H226; SNB-75; MDA-N; NCI-H522; MOLT-4; ACHN.
What all share (assay): inhibition of tumour cell growth, NCI panel, 48 h

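96-well plates; 48 h exposure; 5 concentrations. Endpoints by linear interpolation between flanking doses. Not reached: highest tested concentration assigned. GI50 marks 50% less growth.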 Activity calls are given as the source filed them. No stated cut-off is given here; in the data, active = GI50 up to about 1.1 µM and inactive = higher. Some results are limits rather than exact numbers.

For the molecule `O=C1OCC2=C1C(c1ccc3c(c1)OCO3)c1cc3c(cc1O2)OCO3` (stereo not given), the GI50 was 1.3 µM (inactive) with SN12C; 0.667 µM (active) in the experiment with CCRF-CEM; 1.98 µM (inactive) in the experiment with A498; 0.59 µM (active) in the experiment on PC-3; 4.42 µM (inactive) with HCC 2998; 0.813 µM (active) with MDA-MB-231. Moreover, the GI50 is 0.0708 µM (active) with MDA-MB-435; 0.851 µM (active) with HOP-62; 7.94 µM (inactive) in the experiment with OVCAR-4; 0.44 µM (active) with COLO 205; 0.807 µM (active) in the experiment with CAKI-1; 0.522 µM (active) in the experiment with SF-539. The GI50 with K562 is 0.269 µM (active); with NCI-H226 it was 5.14 µM (inactive); in the experiment on SNB-75, 0.5 µM (active); with MDA-N it was 0.0782 µM (active); in the experiment on NCI-H522 it was 0.262 µM (active); in the experiment with MOLT-4 it was 0.374 µM (active). In addition, the GI50 in the experiment on ACHN was 3.27 µM (inactive).

As for `CCOC(=O)c1sc2c(c1OC(=O)c1cccs1)c(=O)n(-c1ccccc1)c(=S)n2-c1ccccc1`, the GI50 in the experiment with SN12C is 18.3 µM (inactive); in the experiment on CCRF-CEM it was 5.15 µM (inactive); in the experiment with A498, 6.4 µM (inactive); in the experiment with PC-3, 12 µM (inactive); in the experiment with HCC 2998 it was 16.6 µM (inactive); in the experiment on MDA-MB-231, 14.9 µM (inactive). The GI50 in the experiment with MDA-MB-435 is 11.5 µM (inactive); with HOP-62, 21.1 µM (inactive); with OVCAR-4, 11.7 µM (inactive); in the experiment on COLO 205 it was 17.3 µM (inactive); in the experiment with CAKI-1, 33.1 µM (inactive); in the experiment with SF-539 it was 16.7 µM (inactive). Besides, the GI50 with K562 is 19.9 µM (inactive); with NCI-H226, 20.5 µM (inactive); with SNB-75, 83.6 µM (inactive); with MDA-N, 30.5 µM (inactive); in the experiment with NCI-H522, 4.69 µM (inactive); in the experiment with MOLT-4, 10.7 µM (inactive). The GI50 with ACHN is 15.8 µM (inactive).

Turning to `N=c1c2c(=S)n(-c3ccccc3)c(=S)n(-c3ccccc3)c2nc(SCCCN2CCCCC2)n1-c1ccccc1`, the GI50 in the experiment on SN12C is 1.78 µM (inactive); in the experiment on CCRF-CEM it was 0.413 µM (active); with A498 it was 2.52 µM (inactive); with PC-3, 1.66 µM (inactive); in the experiment on HCC 2998 it was 1.49 µM (inactive); in the experiment with MDA-MB-231 it was 1.64 µM (inactive). For the same molecule, the GI50 was 1.75 µM (inactive) in the experiment on MDA-MB-435; 1.76 µM (inactive) with HOP-62; 1.81 µM (inactive) in the experiment with OVCAR-4; 1.77 µM (inactive) in the experiment on COLO 205; 1.77 µM (inactive) in the experiment with CAKI-1; 2.93 µM (inactive) in the experiment on SF-539. Also, the GI50 in the experiment with K562 is 1.48 µM (inactive); in the experiment with NCI-H226, 2.35 µM (inactive); in the experiment on SNB-75, 1.73 µM (inactive); in the experiment with MDA-N it was 1.77 µM (inactive); with NCI-H522 it was 1.53 µM (inactive); in the experiment on MOLT-4, 0.118 µM (active). In addition, the GI50 in the experiment with ACHN was 1.7 µM (inactive).

On to `S=C1N=C2C(=N1)n1c3c(c4ccccc41)CCCC23` (stereo not given), for which the GI50 is 29.4 µM (inactive) in the experiment on SN12C; 48.6 µM (inactive) in the experiment on CCRF-CEM; > 100 µM (inactive) with A498; 48.5 µM (inactive) with PC-3; > 100 µM (inactive) in the experiment on HCC 2998; 66.4 µM (inactive) in the experiment on MDA-MB-231. Also, the GI50 in the experiment on MDA-MB-435 was 55.7 µM (inactive); in the experiment with HOP-62 it was 46 µM (inactive); with OVCAR-4, 67.5 µM (inactive); with COLO 205, 42 µM (inactive); with CAKI-1, 42.4 µM (inactive); with SF-539 it was 43.3 µM (inactive). The GI50 is 33.1 µM (inactive) in the experiment on K562; 34.9 µM (inactive) in the experiment with NCI-H226; > 100 µM (inactive) in the experiment on SNB-75; 63.8 µM (inactive) in the experiment on MDA-N; 22.1 µM (inactive) with NCI-H522; 36.6 µM (inactive) in the experiment with MOLT-4. The GI50 in the experiment with ACHN is > 100 µM (inactive).

Consider `ClCCCSSCCCCl`, for which the GI50 in the experiment on SN12C was 29.4 µM (inactive); in the experiment on CCRF-CEM, 5.08 µM (inactive); in the experiment on A498, 38.7 µM (inactive); with PC-3, 24.3 µM (inactive); with HCC 2998, 36.1 µM (inactive); in the experiment with MDA-MB-231, 35.8 µM (inactive). In addition, the GI50 with MDA-MB-435 was 24.3 µM (inactive); in the experiment with HOP-62 it was 38.7 µM (inactive); in the experiment on OVCAR-4 it was 42.7 µM (inactive); with COLO 205, 32.1 µM (inactive); in the experiment with CAKI-1 it was 32.2 µM (inactive); with SF-539, 20.7 µM (inactive). Moreover, the GI50 is 25.8 µM (inactive) with K562; > 79.4 µM (inactive) with NCI-H226; 37.8 µM (inactive) in the experiment on SNB-75; 19.9 µM (inactive) in the experiment on MDA-N; 25.9 µM (inactive) with NCI-H522; 2.06 µM (inactive) with MOLT-4. For the same molecule, the GI50 with ACHN was 43.8 µM (inactive).

Take `O=[N+]([O-])c1ccc(C2=NOC(c3ccc(Cl)cc3)N2C23CC4CC(CC(C4)C2)C3)cc1` (stereo not given): the GI50 with SN12C was > 100 µM (inactive); in the experiment on CCRF-CEM it was > 100 µM (inactive); in the experiment with A498, > 100 µM (inactive); in the experiment with PC-3, > 100 µM (inactive); in the experiment with HCC 2998 it was 64.1 µM (inactive); in the experiment with MDA-MB-231 it was > 100 µM (inactive). Moreover, the GI50 is > 100 µM (inactive) with MDA-MB-435; > 100 µM (inactive) in the experiment with HOP-62; > 100 µM (inactive) in the experiment on OVCAR-4; > 100 µM (inactive) in the experiment on COLO 205; 16.6 µM (inactive) in the experiment with CAKI-1; > 100 µM (inactive) in the experiment with SF-539. Also, the GI50 in the experiment on K562 was > 100 µM (inactive); in the experiment on NCI-H226 it was 64.9 µM (inactive); with SNB-75 it was > 100 µM (inactive); with MDA-N it was > 100 µM (inactive); with NCI-H522, > 100 µM (inactive); in the experiment with MOLT-4, 33.3 µM (inactive). For the same molecule, the GI50 in the experiment with ACHN was 9.71 µM (inactive).

Take `CN(C)Cc1cc(C(C)(C)C)ccc1-c1ccc(C(C)(C)C)cc1CN(C)C`: the GI50 in the experiment on SN12C is > 100 µM (inactive); with CCRF-CEM it was 56.8 µM (inactive); in the experiment with A498, 75.3 µM (inactive); in the experiment with PC-3 it was 43.7 µM (inactive); with HCC 2998 it was 10.2 µM (inactive); in the experiment with MDA-MB-231, > 100 µM (inactive). Also, the GI50 is 84.3 µM (inactive) in the experiment with MDA-MB-435; > 100 µM (inactive) in the experiment with HOP-62; > 100 µM (inactive) in the experiment with OVCAR-4; 64.3 µM (inactive) in the experiment with COLO 205; > 100 µM (inactive) in the experiment on CAKI-1; > 100 µM (inactive) with SF-539. Also, the GI50 in the experiment on K562 is 40.7 µM (inactive); with NCI-H226, > 100 µM (inactive); in the experiment on SNB-75, 88.1 µM (inactive); in the experiment on MDA-N it was > 100 µM (inactive); in the experiment with NCI-H522, 57.8 µM (inactive); with MOLT-4, > 100 µM (inactive). The GI50 in the experiment on ACHN was > 100 µM (inactive).

For the molecule `COC(=O)c1sc2ncc3c(c2c1N)CCCCCC3`, the GI50 with SN12C, in the experiment on CCRF-CEM, in the experiment on A498, in the experiment on PC-3, in the experiment on HCC 2998 and in the experiment on MDA-MB-231 was > 100 µM (inactive) each time. In addition, the GI50 was > 100 µM (inactive) in the experiment with MDA-MB-435; 53.6 µM (inactive) in the experiment with HOP-62; > 100 µM (inactive) with OVCAR-4; > 100 µM (inactive) in the experiment with COLO 205; > 100 µM (inactive) in the experiment on CAKI-1; > 100 µM (inactive) with SF-539. Also, the GI50 in the experiment with K562 was > 100 µM (inactive); in the experiment on NCI-H226, > 100 µM (inactive); in the experiment with SNB-75 it was 97.3 µM (inactive); with MDA-N, > 100 µM (inactive); in the experiment on NCI-H522 it was > 100 µM (inactive); in the experiment with MOLT-4, > 100 µM (inactive). Moreover, the GI50 in the experiment with ACHN is > 100 µM (inactive).

As to `COC(=O)C1Cc2ccc3c(c2C1=O)CCCC3` (stereo not given), the GI50 in the experiment with SN12C was > 100 µM (inactive); in the experiment on CCRF-CEM, 39.2 µM (inactive); with A498, > 100 µM (inactive); with PC-3, 26.2 µM (inactive); in the experiment on HCC 2998, > 100 µM (inactive); in the experiment with MDA-MB-231, 83 µM (inactive). Also, the GI50 with MDA-MB-435 was > 100 µM (inactive); with HOP-62 it was 89.7 µM (inactive); with OVCAR-4, > 100 µM (inactive); in the experiment with COLO 205 it was > 100 µM (inactive); in the experiment with CAKI-1, > 100 µM (inactive); in the experiment with SF-539 it was > 100 µM (inactive). Further, the GI50 in the experiment on K562 was 22.2 µM (inactive); with NCI-H226, 92.9 µM (inactive); in the experiment with SNB-75 it was 89.7 µM (inactive); in the experiment on MDA-N, > 100 µM (inactive); in the experiment on NCI-H522, > 100 µM (inactive); in the experiment with MOLT-4, 21.3 µM (inactive). Also, in the experiment with ACHN, the GI50 was > 100 µM (inactive).

Take `C=C(CCC(C(=O)O)C1CCC2(C)C3=C(CCC12C)C1(C)CCC(O)C(C)(C)C1CC3)C(C)C` (stereo not given): the GI50 is 44.6 µM (inactive) in the experiment on SN12C; > 10 µM (inactive) in the experiment on CCRF-CEM; 29.9 µM (inactive) in the experiment on A498; 77.8 µM (inactive) with PC-3; 81.7 µM (inactive) in the experiment with HCC 2998; 71 µM (inactive) in the experiment on MDA-MB-231. In addition, the GI50 was > 100 µM (inactive) with MDA-MB-435; 8.91 µM (inactive) in the experiment with HOP-62; 43.1 µM (inactive) with OVCAR-4; > 100 µM (inactive) in the experiment with COLO 205; > 100 µM (inactive) in the experiment on CAKI-1; > 100 µM (inactive) with SF-539. In addition, the GI50 with K562 is 14.2 µM (inactive); in the experiment with NCI-H226 it was 30.2 µM (inactive); in the experiment with SNB-75, 58.9 µM (inactive); with MDA-N, 86.7 µM (inactive); in the experiment on NCI-H522 it was 16.6 µM (inactive); in the experiment on MOLT-4 it was 26.9 µM (inactive). In addition, in the experiment with ACHN, the GI50 was 44.7 µM (inactive).
